Literature values in US20040192658A1, “Compositions and methods of using collajolie” (Angiotech International AG, priority 2002, published 2004).
Values belong to the molecule of their own block, whether it stands above or below them.

Legend:
interstitial collagenase = biological target: T1, interstitial collagenase (Homo sapiens, UniProt P03956); details: compared with TIMP-2
T1 sequence (P03956 100-469): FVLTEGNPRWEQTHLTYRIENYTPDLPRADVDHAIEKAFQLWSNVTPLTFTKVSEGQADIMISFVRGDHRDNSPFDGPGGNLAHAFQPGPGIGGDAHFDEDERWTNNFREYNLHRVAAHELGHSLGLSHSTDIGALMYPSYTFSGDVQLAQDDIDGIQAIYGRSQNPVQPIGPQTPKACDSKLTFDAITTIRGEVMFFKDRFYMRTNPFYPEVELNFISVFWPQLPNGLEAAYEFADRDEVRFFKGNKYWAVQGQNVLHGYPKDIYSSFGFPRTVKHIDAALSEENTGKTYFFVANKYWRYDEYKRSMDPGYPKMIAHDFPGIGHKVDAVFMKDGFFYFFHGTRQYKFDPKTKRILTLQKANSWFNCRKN

gelatinase A = biological target: T2, gelatinase A (Homo sapiens, UniProt P08253)
T2 sequence (P08253 110-660): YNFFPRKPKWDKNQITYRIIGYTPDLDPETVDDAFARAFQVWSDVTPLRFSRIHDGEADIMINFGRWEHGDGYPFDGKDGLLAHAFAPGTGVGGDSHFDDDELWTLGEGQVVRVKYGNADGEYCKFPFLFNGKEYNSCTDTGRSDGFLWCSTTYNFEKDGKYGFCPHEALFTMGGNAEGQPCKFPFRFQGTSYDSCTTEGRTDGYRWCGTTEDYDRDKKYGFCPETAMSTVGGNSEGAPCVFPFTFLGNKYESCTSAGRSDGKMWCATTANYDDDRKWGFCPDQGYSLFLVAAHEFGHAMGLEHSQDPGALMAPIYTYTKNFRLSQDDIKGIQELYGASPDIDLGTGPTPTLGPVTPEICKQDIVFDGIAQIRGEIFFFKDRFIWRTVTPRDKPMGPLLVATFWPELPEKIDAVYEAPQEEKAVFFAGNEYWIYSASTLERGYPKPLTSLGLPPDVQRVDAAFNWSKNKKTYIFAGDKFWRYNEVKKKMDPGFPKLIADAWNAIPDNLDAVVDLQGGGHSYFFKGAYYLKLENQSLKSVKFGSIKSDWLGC

gelatinase B = gelatinase B (Homo sapiens, UniProt P14780)
collagenase 1 = biological target: T3, collagenase 1 (Homo sapiens, UniProt P03956)
T3 sequence (P03956 100-469): T1 sequence (P03956 100-469)

Chain of gelatinase B (P14780 94-707, species assumed): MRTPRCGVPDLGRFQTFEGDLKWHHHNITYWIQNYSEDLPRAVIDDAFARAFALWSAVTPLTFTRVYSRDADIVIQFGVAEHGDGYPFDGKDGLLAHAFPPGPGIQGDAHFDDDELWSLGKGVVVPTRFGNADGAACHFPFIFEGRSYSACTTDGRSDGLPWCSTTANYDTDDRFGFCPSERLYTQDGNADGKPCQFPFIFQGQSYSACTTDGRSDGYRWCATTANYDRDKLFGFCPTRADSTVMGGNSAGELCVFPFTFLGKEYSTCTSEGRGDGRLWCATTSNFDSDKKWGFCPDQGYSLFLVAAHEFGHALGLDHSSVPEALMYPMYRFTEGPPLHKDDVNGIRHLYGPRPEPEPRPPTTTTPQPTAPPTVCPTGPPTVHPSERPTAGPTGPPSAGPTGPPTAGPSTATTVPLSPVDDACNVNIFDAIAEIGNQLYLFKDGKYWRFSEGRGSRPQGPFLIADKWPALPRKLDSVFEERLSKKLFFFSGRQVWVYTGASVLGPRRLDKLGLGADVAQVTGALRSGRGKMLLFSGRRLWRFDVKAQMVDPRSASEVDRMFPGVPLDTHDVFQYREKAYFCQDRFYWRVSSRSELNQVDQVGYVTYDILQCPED

Molecule: CNC(=O)[C@@H](NC(=O)[C@H](CC(C)C)[C@H](O)C(=O)NO)C(C)(C)C
established well tolerated single daily dose (single daily dose): 50 mg

Molecule: CN(C)[C@@H]1C(O)=C(C(N)=O)C(=O)[C@@]2(O)C(O)=C3C(=O)c4c(O)cccc4[C@@](C)(O)C3C[C@@H]12 (stereo in doubt) [tetracycline, 4-(dimethylamino)-1,4,4a,5,5a,6,11,12a-octahydro-3,6,10,12,12a-pentahydroxy-6-methyl-1,11-dioxo-2-naphthacenecarboxamide]
well tolerated daily dosage: 1000 mg
established (well) tolerated single dose: 1000 mg

Molecule: CN1C(=O)N(C[C@H](C(=O)NO)[C@@H](CC2CCCC2)C(=O)N2CCCCC2)C(=O)C1(C)C [TROCADE]
established (well) tolerated single dose: 150 mg

Molecule: C[C@H]1c2cccc(O)c2C(=O)C2=C(O)[C@]3(O)C(=O)C(C(N)=O)=C(O)[C@@H](N(C)C)[C@@H]3[C@@H](O)[C@@H]21 [doxycycline, α-6-deoxy-5-hydroxy-tetracycline]
well tolerated daily dosage: 100 mg
established (well) tolerated single dose: 200 mg

Molecule: CN(C)c1ccc(O)c2c1C[C@H]1C[C@H]3[C@H](N(C)C)C(O)=C(C(N)=O)C(=O)[C@@]3(O)C(O)=C1C2=O [minocycline, 7-dimethylamino-6-dimethyl-6-deoxytetracycline]
well tolerated daily dosage: 200 mg
established (well) tolerated single dose: 200 mg

Molecule: TIMP-1: 30 kD Tissue Inhibitor of Matrix Metalloproteinase, the most commonly expressed TIMP molecule
inhibition of interstitial collagenase (interstitial collagenase): better inhibitor of interstitial collagenase than TIMP-2

inhibition of gelatinase A (gelatinase A): inhibits
inhibition of gelatinase B (gelatinase B): inhibits
inhibition of collagenase 1 (collagenase 1): inhibits
B1: TIMP-3: 21 kD Tissue Inhibitor of Matrix Metalloproteinase (protein, UniProt P35625 24-211, looked up)
Metalloproteinase inhibitor 3: CTCSPSHPQDAFCNSDIVIRAKVVGKKLVKEGPFGTLVYTIKQMKMYRGFTKMPHVQYIHTEASESLCGLKLEVNKYQYLLTGRVYDGKMYTGLCNFVERWDQLTLSQRKGLNYRYHLGCNCKIKSCYYLPCFVTSKNECLWTDMLSNFGYPGYQSKHYACIRQKGGYCSWYRGWAPPDKSIINATDP
inhibition of stromelysin (stromelysin): inhibits
